The target in the first assay is T1, human androgen receptor (Homo sapiens, UniProt P10275).
T1 construct: expressed in transfected cells; host or cells: Chinese hamster ovary (CHO) cells, cell line CHO-AR-pMMTV-LUC 1G12-A5-CA
T1 sequence (P10275 1-920): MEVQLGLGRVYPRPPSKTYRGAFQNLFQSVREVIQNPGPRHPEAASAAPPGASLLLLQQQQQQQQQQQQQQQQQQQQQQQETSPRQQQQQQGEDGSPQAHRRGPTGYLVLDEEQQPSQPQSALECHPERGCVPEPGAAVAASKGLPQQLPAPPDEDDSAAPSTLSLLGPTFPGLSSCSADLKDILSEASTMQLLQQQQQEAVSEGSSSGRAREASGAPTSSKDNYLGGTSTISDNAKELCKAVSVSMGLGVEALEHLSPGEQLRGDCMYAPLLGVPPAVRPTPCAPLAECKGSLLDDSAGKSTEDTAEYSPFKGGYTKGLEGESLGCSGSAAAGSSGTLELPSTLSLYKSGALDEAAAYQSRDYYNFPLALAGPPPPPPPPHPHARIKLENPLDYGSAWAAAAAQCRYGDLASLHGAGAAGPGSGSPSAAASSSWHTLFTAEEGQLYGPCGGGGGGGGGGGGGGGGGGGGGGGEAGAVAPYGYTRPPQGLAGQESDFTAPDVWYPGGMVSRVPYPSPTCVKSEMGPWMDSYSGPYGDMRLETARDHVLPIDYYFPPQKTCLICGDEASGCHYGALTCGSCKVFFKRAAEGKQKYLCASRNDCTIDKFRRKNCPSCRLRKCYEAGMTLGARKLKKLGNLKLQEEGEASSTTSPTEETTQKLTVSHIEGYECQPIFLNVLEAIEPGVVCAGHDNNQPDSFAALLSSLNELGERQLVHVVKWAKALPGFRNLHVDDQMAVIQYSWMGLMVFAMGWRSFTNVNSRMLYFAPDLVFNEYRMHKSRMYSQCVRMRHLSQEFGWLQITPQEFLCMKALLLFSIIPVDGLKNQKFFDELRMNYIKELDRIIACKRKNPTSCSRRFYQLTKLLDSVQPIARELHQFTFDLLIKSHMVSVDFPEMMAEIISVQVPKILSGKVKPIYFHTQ
Kind of assay: Androgen receptor transactivation assay, antiandrogenic activity: inhibition of transactivation in the presence of 1 nM DHT (CHO-AR-pMMTV-LUC cells; Table 4). Type of assay: cell-based. As to conditions: antiandrogenic activity, in the presence of 1 nM DHT; read-out: ant EC50. As for the experimental part: Compounds were tested for their Androgen Receptor activity in a transactivation assay and in a binding assay.
The (anti-)androgenic activity of test compounds (EC50 and intrinsic activity) was determined in an in vitro bioassay of Chinese hamster ovary (CHO) cells stably transfected with the human androgen receptor expression plasmid and a reporter plasmid in which the MMTV-promoter is linked to the luciferase reporter gene. The cell-line CHO-AR-pMMTV-LUC 1G12-AS-CA is described in Schoonen et al. (2000), Journal of Steroid Biochemistry and Molecular Biology 74(4):213-222. The antiandrogenic activity of a test compound was determined by the inhibition of the transactivation via the androgen receptor of the enzyme luciferase in the presence of 1 nM DHT (5 α-dihydrotestosterone, 17β-hydroxy-5α-androstan-3-one). Intrinsic activity of antiandrogenic activity was determined in the presence of the reference antiandrogen 2-Hydroxy-2-methyl-N-(4-nitro-3-trifluoromethyl-phenyl)-propionamide (Hydroxyflutamide), and set at 100%. For androgenic activity, maximal intrinsic activity in the presence of 100 nM DHT was set at 100%. Table 4 Androgen receptor activity
The term EC50 denotes the concentration at which the effect is half-maximal. For `O=[N+]([O-])c1ccccc1Sc1cn(Cc2cc(F)cc(F)c2)c2cc(O)ccc12` [Compound 61, 1-(3,5-Difluoro-benzyl)-3-(2-nitro-phenylsulfanyl)-1H-indol-6-ol], the EC50 is greater than 10 µM.
Still for that read-out and setting: the figure for `COc1ccc2c(Sc3ccccc3[N+](=O)[O-])cn(Cc3c(C)noc3C)c2c1` [Compound 80] is greater than 10 µM.

Still in this assay, the particulars now being: in the presence of 1 nM DHT; intrinsic activity relative to reference antiandrogen Hydroxyflutamide (set at 100%); read-out: ant efficacy.
Take `CNC(=O)c1ccc2c(Sc3ccccc3[N+](=O)[O-])cn(Cc3cc(F)cc(F)c3)c2c1` [Compound 47, 1-(3,5-Difluoro-benzyl)-3-(2-nitro-phenylsulfanyl)-1H-indole-6-carboxylic acid methylamide]: the Emax is less than 20%.
Regarding `CN(C)C(=O)c1ccc2c(Sc3ccccc3[N+](=O)[O-])cn(Cc3cc(F)cc(F)c3)c2c1` [Compound 49], the Emax is less than 20%.
As for `O=[N+]([O-])c1ccccc1Sc1cn(Cc2cc(F)cc(F)c2)c2cc(F)ccc12` [Compound 50], the Emax is less than 20%.
As to `O=[N+]([O-])c1ccccc1Sc1cn(Cc2cc(F)cc(F)c2)c2ccc(F)cc12` [Compound 53], the Emax is less than 20%.
Still for that read-out and setting: the result for `O=[N+]([O-])c1ccccc1Sc1cn(Cc2cc(F)cc(F)c2)c2cccc(Cl)c12` [Compound 54] reads less than 20%; that for `Cc1cccc2c1c(Sc1ccccc1[N+](=O)[O-])cn2Cc1cc(F)cc(F)c1` [Compound 55], less than 20%; that for `Nc1ccc2c(Sc3ccccc3[N+](=O)[O-])cn(Cc3cc(F)cc(F)c3)c2c1` [Compound 57, 1-(3,5-Difluoro-benzyl)-3-(2-nitro-phenylsulfanyl)-1H-indol-6-ylamine], less than 20%.
On the same count and under the same terms, the figure for `CC(=O)Nc1ccc2c(Sc3ccccc3[N+](=O)[O-])cn(Cc3cc(F)cc(F)c3)c2c1` [Compound 58, N-[1-(3,5-Difluoro-benzyl)-3-(2-nitro-phenylsulfanyl)-1H-indol-6-yl]-acetamide] is less than 20%.
The same measure, in the same setting: the figure for `O=C(Nc1ccc2c(Sc3ccccc3[N+](=O)[O-])cn(Cc3cc(F)cc(F)c3)c2c1)C(F)(F)F` [Compound 59, N-[1-(3,5-Difluoro-benzyl)-3-(2-nitro-phenylsulfanyl)-1H-indol-6-yl]-2,2,2-trifluoroacetamide] is less than 20%; for `O=[N+]([O-])c1ccccc1Sc1cn(Cc2cc(F)cc(F)c2)c2cc(O)ccc12` [Compound 61, 1-(3,5-Difluoro-benzyl)-3-(2-nitro-phenylsulfanyl)-1H-indol-6-ol] it is less than 20%.
Take `COc1ccc2c(S(=O)(=O)c3ccccc3[N+](=O)[O-])cn(Cc3cc(F)cc(F)c3)c2c1` [Compound 62, 1-(3,5-Difluoro-benzyl)-6-methoxy-3-(2-nitro-benzenesulfonyl)-1H-indole]: the Emax was less than 20%.
The same measure, in the same setting: the figure for `COc1ccc2c(Sc3ccccc3[N+](=O)[O-])cn(Cc3cc(F)cc(F)c3)c2c1` [Compound 63, 1-(3,5-Difluoro-benzyl)-6-methoxy-3-(2-nitro-phenylsulfanyl)-1H-indole] is less than 20%; for `COc1ccc2c([S+]([O-])c3ccccc3[N+](=O)[O-])cn(Cc3cc(F)cc(F)c3)c2c1` (stereo not drawn) [Compound 64, 1-(3,5-Difluoro-benzyl)-6-methoxy-3-(2-nitro-benzenesulfinyl)-1H-indole] it is 50 to 80%; for `COc1ccc2c(Sc3ccccn3)cn(Cc3cc(F)cc(F)c3)c2c1` [Compound 65, 1-(3,5-Difluoro-benzyl)-6-methoxy-3-(pyridin-2-ylsulfanyl)-1H-indole] it is less than 20%.
Take `COc1ccc2c(Sc3cccc[n+]3[O-])cn(Cc3cc(F)cc(F)c3)c2c1` [Compound 66]: the Emax was 20 to 50%.
Same read-out and setting: the result for `COc1ccc2c(Sc3ccccc3[N+](=O)[O-])cn(Cc3cccc(Cl)c3)c2c1` [Compound 67] reads less than 20%; that for `COc1ccc2c(Sc3ccccc3[N+](=O)[O-])cn(Cc3cccc(C#N)c3)c2c1` [Compound 68], less than 20%; that for `COc1ccc2c(Sc3ccccc3[N+](=O)[O-])cn(Cc3cc(F)cc(C(F)(F)F)c3)c2c1` [Compound 69], less than 20%.
On the same count and under the same terms, the result for `COc1ccc2c(Sc3ccccc3[N+](=O)[O-])cn(Cc3cc(F)ccc3C(F)(F)F)c2c1` [Compound 70] reads less than 20%; that for `COc1ccc2c(Sc3ccccc3[N+](=O)[O-])cn(Cc3cccc(F)c3)c2c1` [Compound 71], less than 20%; that for `COc1cccc(Cn2cc(Sc3ccccc3[N+](=O)[O-])c3ccc(OC)cc32)c1` [Compound 72], less than 20%.
The same measure, in the same setting: the result for `COc1ccc2c(Sc3ccccc3[N+](=O)[O-])cn(Cc3cccc(C)c3)c2c1` [Compound 73] reads less than 20%; that for `COc1ccc2c(Sc3ccccc3[N+](=O)[O-])cn(Cc3cccnc3)c2c1` [Compound 75], less than 20%.
As to `COc1ccc2c(Sc3ccccc3[N+](=O)[O-])cn(Cc3ccc(Cl)c(C(F)(F)F)c3)c2c1` [Compound 76], the Emax was less than 20%.
Regarding `COc1ccc2c(Sc3ccccc3[N+](=O)[O-])cn(Cc3cccc(OC(F)(F)F)c3)c2c1` [Compound 77], the Emax was less than 20%.
Still for that read-out and setting: the result for `COc1ccc2c(Sc3ccccc3[N+](=O)[O-])cn(Cc3cccc(C(F)(F)F)c3)c2c1` [Compound 78] reads less than 20%.
Turning to `COc1ccc2c(Sc3ccccc3[N+](=O)[O-])cn(Cc3csc(C)n3)c2c1` [Compound 79], the Emax is less than 20%.
The same measure, in the same setting: the figure for `COc1ccc2c(Sc3ccccc3[N+](=O)[O-])cn(Cc3c(C)noc3C)c2c1` [Compound 80] is 20 to 50%.
The same measure, in the same setting: the figure for `COc1ccc2c(Sc3ccccc3[N+](=O)[O-])cn(Cc3ccc(Cl)cc3)c2c1` [Compound 81] is 50 to 80%; for `COc1ccc2c(Sc3ccccc3[N+](=O)[O-])cn(Cc3ccc(C#N)cc3)c2c1` [Compound 82] it is less than 20%; for `COc1ccc2c(Sc3ccccc3[N+](=O)[O-])cn(Cc3ccc(F)cc3)c2c1` [Compound 83] it is less than 20%.
Still for that read-out and setting: the figure for `COc1ccc(Cn2cc(Sc3ccccc3[N+](=O)[O-])c3ccc(OC)cc32)cc1` [Compound 84] is greater than 80%; for `COc1ccc2c(Sc3ccccc3[N+](=O)[O-])cn(Cc3ccc(C)cc3)c2c1` [Compound 85] it is 20 to 50%.
In the case of `COc1ccc2c(Sc3ccccc3[N+](=O)[O-])cn(Cc3cnc(Cl)s3)c2c1` [Compound 87], the Emax was less than 20%.
The same measure, in the same setting: the result for `COc1ccc2c(Sc3ccccc3[N+](=O)[O-])cn(Cc3ccc(Cl)s3)c2c1` [Compound 88] reads less than 20%; that for `O=[N+]([O-])c1ccccc1Sc1cn(Cc2ccccc2)c2ccccc12` [Compound 90], less than 20%; that for `COc1ccc2c(c1)c(Sc1ccccc1[N+](=O)[O-])cn2Cc1ccccc1` [Compound 91], greater than 80%.

The assay is the same for the next values; noted with them: read-out: ant efficacy, in the presence of 1 nM DHT; intrinsic activity relative to reference antiandrogen Hydroxyflutamide (set at 100%).
For the compound `CCCNC(=O)c1ccc2c(Sc3ccccc3[N+](=O)[O-])cn(Cc3cc(F)cc(F)c3)c2c1` [Compound 48], the Emax fell in the range of 20 to 50%.
Consider `O=[N+]([O-])c1ccc2c(Sc3ccccc3[N+](=O)[O-])cn(Cc3cc(F)cc(F)c3)c2c1` [Compound 60], for which the Emax is less than 20%.
On the same count and under the same terms, the figure for `COc1ccc2c(Sc3ccccc3[N+](=O)[O-])cn(Cc3cccc([N+](=O)[O-])c3)c2c1` [Compound 74] is less than 20%.
With `COc1ccc2c(Sc3ccccc3[N+](=O)[O-])cn(CC3CCCCC3)c2c1` [Compound 89], the Emax lay in the range of 20 to 50%.

In a further assay the target is T1, human androgen receptor. Kind of assay: Androgen receptor transactivation assay, androgenic activity in the presence of 0.1 µmol/l onapristone (CHO-AR-pMMTV-LUC cells; Table 5). Type of assay: cell-based. Particulars: maximal intrinsic activity in the presence of 100 nM DHT set at 1.00. As for the experimental part: The androgenic activity (EC50, potency, and efficacy) of the compounds in Table 5 was determined in an in vitro bioassay of Chinese hamster ovary (CHO) cells stably transfected with the human androgen receptor expression plasmid and a reporter plasmid in which the MMTV promotor is linked to the luciferase reporter gene. The cell line CHO-AR-pMMTV-LUC 1G12-A5-CA is described in Schoonen et al. (J. Steroid Biochem. Molec. Biol. […]; 74: 213-222). The androgen receptor activity of compounds was determined in the presence of 0.1 µmol/l onapristone. The maximal efficacy in the presence of 100 nmol/l DHT was set as 100%. The potencies are expressed as percentage of DHT activity. Table 5 Androgen receptor activity
Turning to `COc1ccc2c(Sc3ccccc3[N+](=O)[O-])cn(Cc3ccncc3)c2c1` [Compound 93], the ago efficacy result is “+ (between 0.50 and 0.80)”.

The same assay, now with this note: potency expressed as percentage of DHT activity.
On to `COc1ccc2c(Sc3ccccc3[N+](=O)[O-])cn(Cc3ccncc3)c2c1` [Compound 93], for which the ago potency entry is “± (between 0.1 % and 1%)”.
